Data on 19 molecules can be found in US20070232601A1, “Vla-4 Inhibitor” (priority 2004, published 2007).

The target in data set [1] is T1, hα4 and β1 integrins (VLA-4) (Homo sapiens, UniProt P05556+P13612).
T1 construct: expressed in transfected cells; host or cells: CHO cells
The data set is described as follows: In vitro evaluation: inhibition of binding of CHO cells expressing hα4 and β1 integrins to Eu3+-hVCAM-1 D1D7-IgG. The note with it: ligand Eu3+-hVCAM-1 D1D7-IgG 2 nM, Ki calculated from IC50. The method, boiled down: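 CHO cells stably expressing hα4β1 were cultured 2 days, then incubated 1 h at room temperature with Eu3+-hVCAM-1 D1D7-IgG (added as 2 nM solution) and compound in HEPES pH 7.5 with Ca2+, Mg2+ and 4 mM Mn2+, ± 6% human serum albumin. Bound europium was read by time-resolved fluorescence; IC50 was converted to Ki using Scatchard-derived Kd.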

Data set [2] in a line: Dispersibility test in Japanese Pharmacopoeia First and Second Solution. It is filed as physicochemical. The note with it: for Dispersibility in Japanese Pharmacopoeia First Solution: JP1, pH 1.2; for Dispersibility in Japanese Pharmacopoeia Second Solution: JP2, pH 6.8. The method, then:
Dispersibility of a test substance in Japanese Pharmacopoeia First Solution (JP1, pH 1.2) and Japanese Pharmacopoeia Second Solution (JP2, pH 6.8) was evaluated.

pKi: −log10 of the molar value.

The term pKi denotes −log10 of the Ki, conventionally taken in molar units.

T1 sequence (P13612 34-1032): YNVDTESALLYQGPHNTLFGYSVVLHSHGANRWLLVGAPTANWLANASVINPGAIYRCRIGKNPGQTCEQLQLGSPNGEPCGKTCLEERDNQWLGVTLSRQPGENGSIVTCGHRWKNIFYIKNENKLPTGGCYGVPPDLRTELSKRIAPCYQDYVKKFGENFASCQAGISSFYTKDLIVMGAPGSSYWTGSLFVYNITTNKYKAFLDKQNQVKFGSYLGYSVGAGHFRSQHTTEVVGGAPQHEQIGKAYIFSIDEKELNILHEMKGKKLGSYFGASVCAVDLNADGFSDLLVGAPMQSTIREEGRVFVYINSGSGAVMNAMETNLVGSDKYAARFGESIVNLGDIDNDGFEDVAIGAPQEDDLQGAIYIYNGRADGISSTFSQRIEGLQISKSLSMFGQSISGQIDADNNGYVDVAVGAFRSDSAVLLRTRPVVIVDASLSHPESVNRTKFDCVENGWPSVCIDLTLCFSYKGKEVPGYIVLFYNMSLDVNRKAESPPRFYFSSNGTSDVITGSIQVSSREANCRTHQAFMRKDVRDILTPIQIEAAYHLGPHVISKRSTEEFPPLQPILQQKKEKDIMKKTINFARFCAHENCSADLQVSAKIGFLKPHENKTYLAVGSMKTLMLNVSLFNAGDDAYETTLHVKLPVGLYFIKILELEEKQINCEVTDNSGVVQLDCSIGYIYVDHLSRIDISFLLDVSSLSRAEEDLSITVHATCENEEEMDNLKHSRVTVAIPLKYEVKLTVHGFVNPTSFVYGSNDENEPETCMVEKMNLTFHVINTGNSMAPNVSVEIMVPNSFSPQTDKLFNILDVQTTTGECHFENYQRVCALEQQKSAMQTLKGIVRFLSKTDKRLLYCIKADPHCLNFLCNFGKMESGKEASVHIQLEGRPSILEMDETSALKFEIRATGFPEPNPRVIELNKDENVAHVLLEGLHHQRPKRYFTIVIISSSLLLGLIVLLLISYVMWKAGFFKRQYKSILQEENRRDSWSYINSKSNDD
T1 sequence (P05556 21-798): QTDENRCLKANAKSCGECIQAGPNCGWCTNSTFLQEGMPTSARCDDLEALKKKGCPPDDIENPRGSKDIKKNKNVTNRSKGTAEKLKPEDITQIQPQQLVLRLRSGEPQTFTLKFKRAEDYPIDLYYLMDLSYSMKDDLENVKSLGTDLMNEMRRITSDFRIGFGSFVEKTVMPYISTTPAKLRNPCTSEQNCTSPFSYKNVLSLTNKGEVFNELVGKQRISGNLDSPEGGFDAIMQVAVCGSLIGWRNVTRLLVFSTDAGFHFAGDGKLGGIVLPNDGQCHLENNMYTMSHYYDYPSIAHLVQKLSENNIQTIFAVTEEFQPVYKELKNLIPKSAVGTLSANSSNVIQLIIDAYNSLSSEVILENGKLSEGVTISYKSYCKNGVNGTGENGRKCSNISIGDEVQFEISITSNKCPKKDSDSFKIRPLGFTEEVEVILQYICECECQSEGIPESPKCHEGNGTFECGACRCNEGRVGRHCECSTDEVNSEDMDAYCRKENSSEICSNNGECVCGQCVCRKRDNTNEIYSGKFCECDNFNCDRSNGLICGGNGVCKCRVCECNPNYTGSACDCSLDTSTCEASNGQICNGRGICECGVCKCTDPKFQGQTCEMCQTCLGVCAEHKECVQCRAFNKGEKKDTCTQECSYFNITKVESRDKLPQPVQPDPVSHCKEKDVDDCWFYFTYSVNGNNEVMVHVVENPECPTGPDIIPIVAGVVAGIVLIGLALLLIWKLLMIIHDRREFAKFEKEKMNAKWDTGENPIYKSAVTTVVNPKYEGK

As for `COc1ccccc1Nc1nc2ccc(CC(=O)N3C[C@@H](OC)C[C@H]3c3ncc(CCC(=O)O)s3)c(F)c2o1` [Example 10, 3-[2-[1-[[7-Fluoro-2-(2-methoxyphenylamino)-1,3-benzoxazol-6-yl]acetyl]-(4S)-methoxy-(2S)-pyrrolidinyl]-5-thiazolyl]propionic acid], the pKi in data set [1] is 9.25. In addition, in data set [2], the “Dispersibility in Japanese Pharmacopoeia First Solution” value was determined as 1700 µg/mL and the “Dispersibility in Japanese Pharmacopoeia Second Solution” value is 2000 µg/mL.

With `CO[C@@H]1C[C@@H](c2ncc(CCC(=O)O)s2)N(C(=O)Cc2cc(Cl)c(NC(=O)c3csc4ccccc34)cc2F)C1` [Example 25, 3-[2-[1-[4-[(3-Benzo[b]thienylcarbonyl)amino]-5-chloro-2-fluorophenylacetyl]-(4R)-methoxy-(2S)-pyrrolidinyl]-5-thiazolyl]propionic acid], in data set [1], the pKi was 9.08. In data set [2], the “Dispersibility in Japanese Pharmacopoeia First Solution” value was 7 µg/mL and the “Dispersibility in Japanese Pharmacopoeia Second Solution” value came out at 330 µg/mL.

`Cn1cc(C(=O)Nc2cc(Cl)c(CC(=O)N3CCC[C@H]3c3ncc(CCC(=O)O)s3)cc2Cl)c2ccccc21` [Example 26, 3-[2-[1-[2,5-Dichloro-4-(1-methyl-3-indolylcarbonylamino)phenylacetyl]-(2S)-pyrrolidinyl]-5-thiazolyl]propionic acid]: the pKi in data set [1] is 8.60. Further, in data set [2], the “Dispersibility in Japanese Pharmacopoeia First Solution” value was 4 µg/mL and the “Dispersibility in Japanese Pharmacopoeia Second Solution” value stood at 660 µg/mL.

Turning to `O=C(O)CCc1cnc([C@@H]2C[C@H](Oc3cccnc3)CN2C(=O)Cc2cc(Cl)c(NC(=O)c3csc4ccccc34)cc2F)s1` [Example 45, 3-[2-[1-[4-[(3-Benzo[b]thienylcarbonyl)amino]-5-chloro-2-fluorophenylacetyl]-(4S)-(3-pyridyloxy)-(2S)-pyrrolidinyl]-5-thiazolyl]propionic acid], in data set [1], the pKi was 8.80. In addition, in data set [2], the “Dispersibility in Japanese Pharmacopoeia First Solution” value was found to be 2000 µg/mL and the “Dispersibility in Japanese Pharmacopoeia Second Solution” value came to 200 µg/mL.

As to `O=C(O)CCc1cnc([C@@H]2C[C@H](N3CCCCC3)CN2C(=O)Cc2cc(Cl)c(NC(=O)c3csc4ccccc34)cc2F)s1` [Example 47, 3-[2-[1-[4-[(3-Benzo[b]thienylcarbonyl)amino]-5-chloro-2-fluorophenylacetyl]-(4S)-(1-piperidinyl)-(2S)-pyrrolidinyl]-5-thiazolyl]propionic acid], the pKi in data set [1] is 9.03. Moreover, in data set [2], the “Dispersibility in Japanese Pharmacopoeia First Solution” value was over 2000 µg/mL and the “Dispersibility in Japanese Pharmacopoeia Second Solution” value amounted to 510 µg/mL.

`COC1CN([C@H]2C[C@@H](c3ncc(CCC(=O)O)s3)N(C(=O)Cc3cc(Cl)c(NC(=O)c4cn(C)c5ccccc45)cc3F)C2)C1` [Example 63, 3-[2-[1-[5-Chloro-2-fluoro-4-(1-methyl-3-indolylcarbonylamino)phenylacetyl]-(4S)-[1-(3-methoxy)azetidinyl]-(2S)-pyrrolidinyl]-5-thiazolyl]propionic acid]: the pKi in data set [1] was 9.05. Besides, in data set [2], the “Dispersibility in Japanese Pharmacopoeia First Solution” value was 1000 µg/mL and the “Dispersibility in Japanese Pharmacopoeia Second Solution” value came out at 1000 µg/mL.

On to `COC1CN([C@H]2C[C@@H](c3ncc(CCC(=O)O)s3)N(C(=O)Cc3cc(Cl)c(NC(=O)c4cn(C)c5ccccc45)cc3Cl)C2)C1` [Example 64, 3-[2-[1-[2,5-Dichloro-4-(1-methyl-3-indolylcarbonylamino)phenylacetyl]-(4S)-[1-(3-methoxy)-azetidinyl]-(2S)-pyrrolidinyl]-5-thiazolyl]propionic acid], for which, in data set [1], the pKi was 8.42. In addition, in data set [2], the “Dispersibility in Japanese Pharmacopoeia First Solution” value was determined as 1000 µg/mL and the “Dispersibility in Japanese Pharmacopoeia Second Solution” value came to 1000 µg/mL.

As for `COC1CN([C@H]2C[C@@H](c3ncc(CCC(=O)O)s3)N(C(=O)Cc3cc(Cl)c(NC(=O)c4csc5ccccc45)cc3F)C2)C1` [Example 65, 3-[2-[1-[4-(3-Benzo[b]thiophenylcarbonylamino)-5-chloro-2-fluorophenylacetyl]-(4S)-[1-(3-methoxy)azetidinyl]-(2S)-pyrrolidinyl]-5-thiazolyl]propionic acid], in data set [1], the pKi is 9.03. Besides, in data set [2], the “Dispersibility in Japanese Pharmacopoeia First Solution” value was determined as 1000 µg/mL and the “Dispersibility in Japanese Pharmacopoeia Second Solution” value is 1000 µg/mL.

`COC1CN([C@H]2C[C@@H](c3ncc(CCC(=O)O)s3)N(C(=O)Cc3cc(Cl)c(NC(=O)c4csc5ccccc45)cc3Cl)C2)C1` [Example 66]: the pKi in data set [1] is 9.08. In addition, in data set [2], the “Dispersibility in Japanese Pharmacopoeia First Solution” value turned out to be 1000 µg/mL and the “Dispersibility in Japanese Pharmacopoeia Second Solution” value is 1000 µg/mL.

Consider `COC1CN([C@H]2C[C@@H](c3ncc(CCC(=O)O)s3)N(C(=O)Cc3cc(Cl)c(NC(=O)c4coc5ccccc45)cc3F)C2)C1` [Example 67, 3-[2-[1-[4-(3-Benzo[b]furanylcarbonylamino)-5-chloro-2-fluorophenylacetyl]-(4S)-[1-(3-methoxy)azetidinyl]-(2S)-pyrrolidinyl]-5-thiazolyl]propionic acid], for which the pKi in data set [1] is 8.92. Also, in data set [2], the “Dispersibility in Japanese Pharmacopoeia First Solution” value was determined as 1000 µg/mL and the “Dispersibility in Japanese Pharmacopoeia Second Solution” value came to 1000 µg/mL.

Consider `COC1CN([C@H]2C[C@@H](c3ncc(CCC(=O)O)s3)N(C(=O)Cc3cc(Cl)c(NC(=O)c4coc5ccccc45)cc3Cl)C2)C1` [Example 68, 3-[2-[[1-4-(3-Benzo[b]furanylcarbonylamino)-2,5-dichlorophenylacetyl]-(4S)-[1-(3-methoxy)azetidinyl]-(2S)-pyrrolidinyl]-5-thiazolyl]propionic acid], for which the pKi in data set [1] is 9.14. Moreover, in data set [2], the “Dispersibility in Japanese Pharmacopoeia First Solution” value amounted to 1000 µg/mL and the “Dispersibility in Japanese Pharmacopoeia Second Solution” value is 1000 µg/mL.

Take `CCOC1CN([C@H]2C[C@@H](c3ncc(CCC(=O)O)s3)N(C(=O)Cc3cc(Cl)c(NC(=O)c4cn(C)c5ccccc45)cc3F)C2)C1` [Example 69, 3-[2-[1-[5-Chloro-2-fluoro-4-(1-methyl-3-indolylcarbonylamino)phenylacetyl]-(4S)-[1-(3-ethoxy)azeditinyl]-(2S)-pyrroldinyl]-5-thiazolyl]propionic acid]: in data set [1], the pKi is 9.15. In addition, in data set [2], the “Dispersibility in Japanese Pharmacopoeia First Solution” value worked out at 940 µg/mL and the “Dispersibility in Japanese Pharmacopoeia Second Solution” value was found to be 940 µg/mL.

With `CCOC1CN([C@H]2C[C@@H](c3ncc(CCC(=O)O)s3)N(C(=O)Cc3cc(Cl)c(NC(=O)c4cn(C)c5ccccc45)cc3Cl)C2)C1` [Example 70, 3-[2-[1-[2,5-Dichloro-4-(1-methyl-3-indolylcarbonylamino)phenylacetyl]-(4S)-[1-(3-ethoxy)azetidinyl]-(2S)-pyrrolidinyl]-5-thiazolyl]propionic acid], the pKi in data set [1] was 8.64. For the same molecule, in data set [2], the “Dispersibility in Japanese Pharmacopoeia First Solution” value came out at 960 µg/mL and the “Dispersibility in Japanese Pharmacopoeia Second Solution” value came to 960 µg/mL.

For `CON(C)[C@H]1C[C@@H](c2ncc(CCC(=O)O)s2)N(C(=O)Cc2cc(Cl)c(NC(=O)c3cn(C)c4ccccc34)cc2Cl)C1` [Example 128, 3-[3-[1-[2,5-Dichloro-4-(1-methyl-3-indolylcarbonylamino)phenylacetyl]-(4S)—N,O-dimethylhydroxylamino-(2S)-pyrrolidinyl]-5-thiazolyl]propionic acid], in data set [1], the pKi is 8.17.

Consider `CON(C)[C@H]1C[C@@H](c2ncc(CCC(=O)O)s2)N(C(=O)Cc2cc(Cl)c(NC(=O)c3csc4ccccc34)cc2F)C1` [Example 129, 3-[2-[1-[4-(3-Benzo[b]thiophenylcarbonylamino)-5-chloro-2-fluorophenylacetyl]-(4S)—N,O-dimethylhydroxylamino-(2S)-pyrrolidinyl]-5-thiazolyl]propionic acid], for which, in data set [1], the pKi is 8.62.

For the molecule `CON(C)[C@H]1C[C@@H](c2ncc(CCC(=O)O)s2)N(C(=O)Cc2cc(Cl)c(NC(=O)c3csc4ccccc34)cc2Cl)C1` [Example 130, 3-[2-[1-[4-(3-Benzo[b]thiophenylcarbonylamino)-2,5-dichlorophenylacetyl]-(4S)—N,O-dimethylhydroxylamino-(2S)-pyrrolidinyl]-5-thiazolyl]propionic acid], in data set [1], the pKi was 8.46.

With `CON(C)[C@H]1C[C@@H](c2ncc(CCC(=O)O)s2)N(C(=O)Cc2cc(Cl)c(NC(=O)c3coc4ccccc34)cc2F)C1` [Example 131, 3-[2-[1-[4-(3-Benzo[b]furanylcarbonylamino)-5-chloro-2-fluorophenylacetyl]-(4S)—N,O-dimethylhydroxylamino-(2S)-pyrrolidinyl]-5-thiazolyl]propionic acid], the pKi in data set [1] is 8.23.

In the case of `CON(C)[C@H]1C[C@@H](c2ncc(CCC(=O)O)s2)N(C(=O)Cc2cc(Cl)c(NC(=O)c3coc4ccccc34)cc2Cl)C1` [Example 132, 3-[2-[1-[-(3-Benzo[b]furanylcarbonylamino)-2,5-dichlorophenylacetyl]-(4S)—N,O-dimethylhydroxylamino-(2S)-pyrrolidinyl]-5-thiazolyl]propionic acid], the pKi in data set [1] is 7.89.

In the case of `COC[C@@]1(c2ncc(CCC(=O)O)s2)C[C@H](OC)CN1C(=O)Cc1cc(Cl)c(NC(=O)c2cn(C)c3ccccc23)cc1Cl` [Example 133, 3-{2-[(2R,4S)-1-[2-(2,5-dichloro-4-{[(1-methyl-1H-indol-3-yl)carbonyl]amino}phenyl)acetyl]-4-methoxy-2-(methoxymethyl)pyrrolidinyl]thiazol-5-yl}propionic acid], the pKi in data set [1] was 8.35.
